Assay results: patent US12064426B2, “Selective inhibitors of ROCK1 and ROCK2 protein kinases and uses thereof” (GENOSCO Inc., priority 2021, dated 2024)

Assays:
[1] = target: T1, Recombinant ROCK2 (amino acids 5-554) (Homo sapiens, UniProt O75116); assay: ROCK inhibition assay, LANCE Ultra TR-FRET kinase assay (ROCK2); type: biochemical; conditions: 4 μM ATP, 50 nM ULight-CREBtide substrate
T1 construct: ROCK2 (amino acids 5-554); by word order, ROCK2 from SignalChem
Outline: (§1)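 Reaction buffer 50 mM HEPES pH 7.5, 10 mM MgCl2, 1 mM EGTA, 2 mM DTT; kinase, ULight-CREBtide (50 nM) and ATP (ROCK1 1 μM, ROCK2 4 μM) react 1 h at room temperature. Phospho-Ser133 detected by europium antibody after 10 mM EDTA stop, TR-FRET ex 320 nm; IC50 calculated.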

[2] = target: T2, Recombinant ROCK1 (amino acids 1-477) (Homo sapiens, UniProt Q13464); assay: ROCK inhibition assay, LANCE Ultra TR-FRET kinase assay (ROCK1); type: biochemical; conditions: 1 μM ATP, 50 nM ULight-CREBtide substrate
T2 construct: Recombinant ROCK1 (amino acids 1-477); by word order, ROCK1 from Carna Biosciences
T2 sequence (Q13464 1-477): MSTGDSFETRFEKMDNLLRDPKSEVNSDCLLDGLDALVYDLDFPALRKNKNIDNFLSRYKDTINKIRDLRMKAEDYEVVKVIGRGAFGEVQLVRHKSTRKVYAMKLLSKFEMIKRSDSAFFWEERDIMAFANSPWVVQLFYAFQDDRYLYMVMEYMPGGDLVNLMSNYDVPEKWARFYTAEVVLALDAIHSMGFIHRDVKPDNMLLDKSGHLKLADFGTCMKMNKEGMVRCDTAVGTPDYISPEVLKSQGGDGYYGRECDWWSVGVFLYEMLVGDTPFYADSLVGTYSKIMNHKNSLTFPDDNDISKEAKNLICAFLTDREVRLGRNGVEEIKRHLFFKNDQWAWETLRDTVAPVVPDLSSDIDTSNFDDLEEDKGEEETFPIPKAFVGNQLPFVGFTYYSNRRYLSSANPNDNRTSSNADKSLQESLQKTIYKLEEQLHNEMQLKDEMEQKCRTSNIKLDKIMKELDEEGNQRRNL
Outline: as §1

T1 sequence (O75116 5-554): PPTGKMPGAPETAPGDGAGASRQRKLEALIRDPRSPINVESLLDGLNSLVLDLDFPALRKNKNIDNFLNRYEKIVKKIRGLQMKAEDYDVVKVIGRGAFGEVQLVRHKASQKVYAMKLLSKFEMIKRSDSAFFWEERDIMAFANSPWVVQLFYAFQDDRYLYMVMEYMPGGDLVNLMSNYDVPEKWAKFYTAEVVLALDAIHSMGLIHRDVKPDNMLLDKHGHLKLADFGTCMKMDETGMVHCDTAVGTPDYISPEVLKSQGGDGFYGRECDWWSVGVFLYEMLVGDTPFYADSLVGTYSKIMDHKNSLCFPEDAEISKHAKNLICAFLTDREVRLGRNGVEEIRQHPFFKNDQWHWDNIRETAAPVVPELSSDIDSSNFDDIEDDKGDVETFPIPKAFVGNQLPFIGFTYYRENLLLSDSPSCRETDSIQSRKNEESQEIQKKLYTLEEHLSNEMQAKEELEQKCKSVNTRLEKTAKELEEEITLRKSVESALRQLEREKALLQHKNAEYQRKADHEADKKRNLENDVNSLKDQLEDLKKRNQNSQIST

| Structure (SMILES) | IC50 [1] [nM] | IC50 [2] [nM] |
| --- | --- | --- |
| [2H]C([2H])([2H])NC(=O)c1cccc(Cn2ccc3cc(-c4cc[nH]c4C)ncc3c2=O)c1 [Compound 232] | < 10 | 11 to 100 |
| CC(=O)Nc1cccc(Cn2ccc3cc(-c4c[nH]nc4C)ccc3c2=O)c1 [Compound 336] | 10 to 100 | 101 to 500 |
| O=C(NCC1CCOCC1)c1cccc(Cn2cnc3cc(-c4cn[nH]c4C(F)F)ccc3c2=O)c1 [Compound 396] | < 10 | 11 to 100 |
| NCC(c1cccc(C(N)=O)c1)n1cnc2cc(-c3cn[nH]c3C(F)(F)F)ccc2c1=O (centres unmarked) [Compound 507] | 100 to 500 | > 501 |
| CNC(=O)c1cccc([C@H](C)n2cnc3cc(-c4cn[nH]c4Cl)ccc3c2=O)c1 [Compound 468] | 10 to 100 | 101 to 500 |
| CC(=O)Nc1cccc(Cn2ccc3cc(-c4cnoc4C)ccc3c2=O)c1 [Compound 334] | 10 to 100 | 101 to 500 |
| CNC(=O)c1cc(F)cc([C@@H](C)n2cnc3cc(-c4cn[nH]c4C(F)(F)F)ccc3c2=O)c1 [Compound 454] | < 10 | 11 to 100 |
| CNC(=O)c1cccc(Cn2cc(CCN(C)C)c3cc(-c4ccnn4C)ccc3c2=O)c1 [Compound 566] | < 10 | 11 to 100 |
| CS(=O)(=O)Nc1cccc(CNC(=O)c2cccc(Cn3cnc4cc(-c5cn[nH]c5C(F)F)ccc4c3=O)c2)c1 [Compound 399] | 10 to 100 | 101 to 500 |
| [2H]C([2H])([2H])NC(=O)c1cccc(Cn2ccc3cc(-c4c[nH]nc4Cl)ncc3c2=O)c1 [Compound 236] | < 10 | 11 to 100 |
| O=C(NCC1CCOCC1)c1cc(F)cc(Cn2ccc3cc(-c4c[nH]nc4C(F)F)ccc3c2=O)c1 [Compound 60] | < 10 | 11 to 100 |
| Cn1ccc(NC(=O)c2cc(F)cc(Cn3ccc4cc(-c5ccnc(N)c5)ccc4c3=O)c2)n1 [Compound 201] | < 10 | 11 to 100 |
| O=C(NCCO)c1cc(F)cc(Cn2ccc3cc(-c4c[nH]nc4Cl)ccc3c2=O)c1 [Compound 65] | 10 to 100 | 101 to 500 |
| COc1cccc([C@@H](CO)N2CNc3cc(-c4ccncc4)ccc3C2=O)c1 [Compound 527] | 100 to 500 | > 501 |
| CNC(=O)c1cc(F)cc(Cn2ccc3cc(-c4ccoc4C)ncc3c2=O)c1 [Compound 247] | > 500 | > 501 |
| CNC(=O)c1cc(Cn2ccc3cc(-c4conc4C)ccc3c2=O)ccn1 [Compound 313] | 100 to 500 | > 501 |
| CNC(=O)c1cccc(Cn2ccc3cc(-c4ccncc4)ccc3c2=O)c1 [Compound 325] | 10 to 100 | 101 to 500 |
| Cc1nocc1-c1ccc2c(=O)n(Cc3cccc(C(=O)NCC4CCNCC4)c3)cnc2c1 [Compound 418] | < 10 | < 10 |
| CNC(=O)c1cccc(Cn2ccc3cc(-c4cnnn4C)ccc3c2=O)c1 [Compound 327] | > 500 | > 501 |
| CNC(=O)c1cccc(Cn2cc(CCN(C)C)c3cc(-c4cn[nH]c4C(F)(F)F)ccc3c2=O)c1 [Compound 548] | < 10 | < 10 |
| CNC(=O)c1cccc(Cn2cnc3cc(-c4cnnn4C)ccc3c2=O)c1 [Compound 439] | > 500 | > 501 |

| Structure (SMILES) | IC50 [1] [nM] | IC50 [2] [nM] |
| --- | --- | --- |
| Cn1nccc1-c1ccc2c(=O)n(Cc3cccc(C(=O)NCC(F)(F)F)c3)ccc2c1 [Compound 103] | 10 to 100 | 101 to 500 |
| CN1CCC(CNC(=O)c2cccc(Cn3cnc4cc(-c5cn[nH]c5C(F)F)ccc4c3=O)c2)CC1 [Compound 395] | < 10 | < 10 |
| COc1cccc([C@@H](CO)N2CNc3cc(-c4cn[nH]c4C(F)(F)F)ccc3C2=O)c1 [Compound 528] | 100 to 500 | > 501 |
| COc1cccc([C@@H](CO)N2CNc3cc(-c4cnoc4C)ccc3C2=O)c1 [Compound 529] | > 500 | > 501 |
| Cc1nocc1-c1ccc2c(=O)n(Cc3cc(F)cc(C(=O)Nc4ccc5c(c4)CN(C4CC4)CC5)c3)ccc2c1 [Compound 161] | < 10 | 11 to 100 |
| O=C(NC1CCOCC1)c1cccc(Cn2ccc3cc(N4CCOCC4)ccc3c2=O)c1 [Compound 212] | 100 to 500 | > 501 |
| CNC(=O)c1cc(F)cc(Cn2ccc3cc(-c4cn[nH]c4C)ncc3c2=O)c1 [Compound 248] | 10 to 100 | 11 to 100 |
| CN1CCN(CCNC(=O)c2cc(F)cc(Cn3ccc4cc(-c5ccnn5C)ncc4c3=O)c2)CC1 [Compound 268] | < 10 | 11 to 100 |
| CNC(=O)c1cccc([C@@H](C)n2cnc3cc(-c4cn[nH]c4F)ncc3c2=O)c1 [Compound 570] | < 10 | < 10 |
| CNC(=O)c1cc(F)cc(Cn2ccc3cc(-c4c[nH]nc4Cl)ncc3c2=O)c1 [Compound 249] | < 10 | < 10 |
| CNC(=O)c1cc(F)cc(Cn2ccc3cc(-c4cn[nH]c4C(F)F)ccc3c2=O)c1 [Compound 289] | < 10 | 11 to 100 |
| Cn1nccc1-c1ccc2c(=O)n(Cc3cc(F)cc(C(=O)NC4CCNCC4)c3)ccc2c1 [Compound 177] | < 10 | 11 to 100 |
| O=c1c2ccc(-c3c[nH]nc3C(F)F)cc2ccn1Cc1cccc(O)c1 [Compound 14] | < 10 | 11 to 100 |
| COc1cccc(Cn2ccc3cc(-c4cn[nH]c4)ccc3c2=O)c1 [Compound 2, 2-(3-methoxybenzyl)-6-(1H-pyrazol-4-yl)isoquinolin-1(2H)-one] | 10 to 100 | 101 to 500 |
| CNC(=O)c1cc(F)cc(Cn2cnc3cc(-c4cn[nH]c4C(F)F)ccc3c2=O)c1 [Compound 401] | < 10 | 11 to 100 |
| CNC(=O)c1cc(F)cc(Cn2ccc3cc(-c4c[nH]nc4C(F)F)ncc3c2=O)c1 [Compound 252] | < 10 | 11 to 100 |
| COc1cccc(Cn2cnc3cc(-c4c[nH]nc4Cl)ccc3c2=O)c1 [Compound 362] | < 10 | 11 to 100 |
| N#Cc1cccc(C(CN)n2cnc3cc(-c4ccnc(N)c4)ccc3c2=O)c1 (centres unmarked) [Compound 501] | 100 to 500 | > 501 |
| CNC(=O)c1cccc(Cn2ccc3cc(-c4cn[nH]c4C(F)F)ccc3c2=O)c1 [Compound 286] | < 10 | 11 to 100 |
| CNC(=O)c1cccc(Cn2ccc3cc(-c4cn[nH]c4Cl)ccc3c2=O)c1 [Compound 290] | < 10 | 11 to 100 |
| CNC(=O)c1cccc(Cn2ccc3cc(-c4ccoc4C)ccc3c2=O)c1 [Compound 303] | > 500 | > 501 |

| Structure (SMILES) | IC50 [1] [nM] | IC50 [2] [nM] |
| --- | --- | --- |
| Cc1nocc1-c1ccc2c(=O)n(Cc3cccc(C(=O)NCC4CCN(CC(F)(F)F)CC4)c3)ccc2c1 [Compound 83] | 10 to 100 | 101 to 500 |
| CNC(=O)c1cccc([C@@H](C)n2cnc3cc(-c4cn[nH]c4N)ccc3c2=O)c1 [Compound 518] | < 10 | 11 to 100 |
| O=C(NC1CCOCC1)c1cc(F)cc(Cn2ccc3cc(N4CCOCC4)ccc3c2=O)c1 [Compound 211] | 100 to 500 | > 501 |
| CC(C)NC(=O)c1cc(F)cc(Cn2ccc3cc(-c4c[nH]nc4Cl)ncc3c2=O)c1 [Compound 264] | < 10 | 11 to 100 |
| COc1cccc(Cn2ccc3cc(-c4c[nH]nc4C(F)(F)F)ccc3c2=O)c1 [Compound 6] | < 10 | 11 to 100 |
| Cc1nocc1-c1ccc2c(=O)n(Cc3cccc(C(=O)Nc4ccc5c(c4)CCN(C)C5)c3)ccc2c1 [Compound 97] | < 10 | < 10 |
| CC(O)c1cn(Cc2cccc(C(=O)NC3CC3)c2)c(=O)c2ccc(-c3c[nH]nc3C(F)(F)F)cc12 (centres unmarked) [Compound 533] | 10 to 100 | 101 to 500 |
| CNC(=O)c1cc([C@@H](C)n2cnc3cc(-c4cn[nH]c4C(F)(F)F)ccc3c2=O)ccc1F [Compound 456] | 10 to 100 | 101 to 500 |
| O=C(Nc1ccon1)c1cccc(Cn2cnc3cc(-c4cn[nH]c4C(F)(F)F)ccc3c2=O)c1 [Compound 375] | 10 to 100 | 101 to 500 |
| Nc1cc(-c2ccc3c(=O)n(Cc4cc(F)cc(C(=O)Nc5ccon5)c4)ccc3c2)ccn1 [Compound 205] | 100 to 500 | > 501 |
| CNC(=O)c1cc(Cl)cc(Cn2ccc3cc(-c4ccnn4C)ccc3c2=O)c1 [Compound 324] | 100 to 500 | 101 to 500 |
| [2H]C([2H])([2H])NC(=O)c1cccc(Cn2cnc3cc(-c4ccnn4C)ccc3c2=O)c1 [Compound 425] | < 10 | 11 to 100 |
| Cc1nocc1-c1ccc2c(=O)n([C@H](C)c3cccc(C(=O)NCC(F)(F)F)c3)cnc2c1 [Compound 475] | < 10 | 11 to 100 |
| COc1cccc(Cn2ccc3cc(-c4c[nH]nc4Cl)ccc3c2=O)c1 [Compound 18] | < 10 | 11 to 100 |
| O=C(NC1CCOCC1)c1cc(F)cc(Cn2ccc3cc(-c4c[nH]nc4C(F)(F)F)ccc3c2=O)c1 [Compound 130] | 10 to 100 | 11 to 100 |
| C[C@H](c1cccc(C(=O)N(C)C)c1)n1cnc2cc(-c3cn[nH]c3C(F)(F)F)ccc2c1=O [Compound 442] | > 500 | > 501 |
| Cc1nocc1-c1ccc2c(=O)n(Cc3cccc(C(=O)NC4CCN(C5COC5)CC4)c3)ccc2c1 [Compound 88] | 10 to 100 | 101 to 500 |
| CNC(=O)c1cccc(Cn2cc(CC(C)O)c3cc(-c4cn[nH]c4Cl)ccc3c2=O)c1 (centres unmarked) [Compound 560] | < 10 | < 10 |
| CCNC(=O)c1cc(F)cc(Cn2ccc3cc(-c4c[nH]nc4C)ncc3c2=O)c1 [Compound 254] | < 10 | 11 to 100 |
